For series [1], the target named is Adenosine receptor A2a (Homo sapiens, UniProt P29274). The series is described as follows: Agonist activity at human adenosine A2a by TR-FRET assay. Type of series: functional. (In TR-FRET formats the signal depends on donor and acceptor labels being close together.)
Series [2] addresses T1, Muscarinic acetylcholine receptor M1 (Homo sapiens, UniProt P11229).
T1 sequence (P11229 whole entry): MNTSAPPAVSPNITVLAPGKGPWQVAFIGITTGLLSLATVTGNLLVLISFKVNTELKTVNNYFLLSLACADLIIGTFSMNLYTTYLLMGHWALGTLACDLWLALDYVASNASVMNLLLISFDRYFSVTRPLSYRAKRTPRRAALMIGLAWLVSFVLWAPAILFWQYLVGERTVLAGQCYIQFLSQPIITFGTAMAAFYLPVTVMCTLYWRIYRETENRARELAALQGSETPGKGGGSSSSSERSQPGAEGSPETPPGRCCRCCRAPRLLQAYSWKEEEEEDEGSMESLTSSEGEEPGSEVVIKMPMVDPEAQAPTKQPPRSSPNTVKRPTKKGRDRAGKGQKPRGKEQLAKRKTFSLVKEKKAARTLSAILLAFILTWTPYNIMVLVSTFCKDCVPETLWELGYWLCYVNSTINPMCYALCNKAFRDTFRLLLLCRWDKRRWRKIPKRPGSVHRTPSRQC
The series is described as follows: Antagonist activity at human CHRM1 by intracellular Ca fluorescence assay. The class given is functional, cell-based.

In series [3] the target is T2, 5-hydroxytryptamine receptor 2C (Homo sapiens, UniProt P28335).
T2 sequence (P28335 whole entry): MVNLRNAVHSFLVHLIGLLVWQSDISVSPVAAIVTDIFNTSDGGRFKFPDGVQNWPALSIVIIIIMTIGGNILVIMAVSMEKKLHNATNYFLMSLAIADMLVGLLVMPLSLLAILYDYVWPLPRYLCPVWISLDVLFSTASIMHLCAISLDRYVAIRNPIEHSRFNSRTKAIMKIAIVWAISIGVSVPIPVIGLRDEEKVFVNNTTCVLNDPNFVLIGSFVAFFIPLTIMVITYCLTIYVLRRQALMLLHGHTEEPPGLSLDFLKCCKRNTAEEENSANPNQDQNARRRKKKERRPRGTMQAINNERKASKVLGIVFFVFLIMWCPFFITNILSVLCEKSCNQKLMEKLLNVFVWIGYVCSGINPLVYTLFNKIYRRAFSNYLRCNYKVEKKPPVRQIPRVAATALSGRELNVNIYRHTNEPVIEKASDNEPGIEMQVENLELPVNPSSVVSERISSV
The series is described as follows: Antagonist activity at human 5-HT2C by intracellular Ca luminescence assay. The class given is functional, cell-based.

The target in series [4] is Lysine-specific demethylase 4D (Homo sapiens, UniProt Q6B0I6). In words: Inhibition of human JmjD2d using H3K27(me3) as substrate preincubated for 10 mins followed by substrate addition and measured after 7 mins in presence of alpha-KG by RapidFire Mass Spectrometry.
Series [5] deals with Histone deacetylase 7 (Homo sapiens, UniProt Q8WUI4). In words: Inhibition of human HDAC7 by FLINT assay.
The target in series [6] is OATP1B1 (SLCO1B1) (Homo sapiens, UniProt Q9Y6L6). In words: Blockade of human OATP1B1 by imaging analysis.
For series [7], the target named is 3',5'-cyclic-AMP phosphodiesterase 4B (Homo sapiens, UniProt Q07343). The series is described as follows: Inhibition of human PDE4B by luminescence assay.
In series [8] the target is Histamine H1 receptor (Homo sapiens, UniProt P35367). In words: Antagonist activity at human HRH1 by intracellular Ca luminescence assay. The class given is functional, cell-based.
For series [9], the system named is Macrophage. The series is described as follows: Antiinflammatory activity in human primary macrophages assessed as effect on LPS-induced IL18 gene expression at 30 uM measured after 2 hrs by RT-PCR array (reference value: 153374 a.u.). The class given is functional.
Series [10] has as its system Macrophage. The series is described as follows: Antiinflammatory activity in human primary macrophages assessed as effect on LPS-induced IL7 gene expression at 30 uM measured after 2 hrs by RT-PCR array (reference value: 60083 a.u.). Type of series: functional.
Series [11] has as its system Macrophage. The series is described as follows: Antiinflammatory activity in human primary macrophages assessed as effect on LPS-induced TNFSF10 gene expression at 30 uM measured after 2 hrs by RT-PCR array (reference value: 221027 a.u.). Type of series: functional.
Series [12] has as its system Macrophage. The series is described as follows: Antiinflammatory activity in human primary macrophages assessed as effect on LPS-induced LTA gene expression at 30 uM measured after 2 hrs by RT-PCR array (reference value: 11322 a.u.). The class given is functional.
Series [13] relates to Macrophage. The series is described as follows: Antiinflammatory activity in human primary macrophages assessed as effect on LPS-induced BMP1 gene expression at 30 uM measured after 2 hrs by RT-PCR array (reference value: 3930 a.u.). Type of series: functional.
Series [14] deals with Macrophage. In words: Antiinflammatory activity in human primary macrophages assessed as effect on LPS-induced IFNB1 gene expression at 30 uM measured after 2 hrs by RT-PCR array (reference value: 1415030 a.u.). The class given is functional.
Series [15] relates to Macrophage. The series is described as follows: Antiinflammatory activity in human primary macrophages assessed as effect on LPS-induced IFNG gene expression at 30 uM measured after 2 hrs by RT-PCR array (reference value: 240 a.u.). Type of series: functional.
The test system of series [16] is Macrophage. The series is described as follows: Antiinflammatory activity in human primary macrophages assessed as effect on LPS-induced CD70 gene expression at 30 uM measured after 2 hrs by RT-PCR array (reference value: 2415 a.u.). The class given is functional.
In series [17] the test system is Macrophage. The series is described as follows: Antiinflammatory activity in human primary macrophages assessed as effect on LPS-induced TGFA gene expression at 30 uM measured after 2 hrs by RT-PCR array (reference value: 3224 a.u.). The class given is functional.
In series [18] the test system is Macrophage. In words: Antiinflammatory activity in human primary macrophages assessed as effect on LPS-induced IFNK gene expression at 30 uM measured after 2 hrs by RT-PCR array (reference value: 724 a.u.). The class given is functional.
The subject of series [19] is Macrophage. The series is described as follows: Antiinflammatory activity in human primary macrophages assessed as effect on LPS-induced NODAL gene expression at 30 uM measured after 2 hrs by RT-PCR array (reference value: 125 a.u.). The class given is functional.
The subject of series [20] is Macrophage. In words: Antiinflammatory activity in human primary macrophages assessed as effect on LPS-induced GDF11 gene expression at 30 uM measured after 2 hrs by RT-PCR array (reference value: 115 a.u.). The class given is functional.
Series [21] concerns Macrophage. The series is described as follows: Antiinflammatory activity in human primary macrophages assessed as effect on LPS-induced GAPDH gene expression at 30 uM measured after 2 hrs by RT-PCR array (reference value: 1352294 a.u.). The class given is functional.
The subject of series [22] is Macrophage. The series is described as follows: Antiinflammatory activity in human primary macrophages assessed as effect on LPS-induced FAM3B gene expression at 30 uM measured after 2 hrs by RT-PCR array (reference value: 996 a.u.). Type of series: functional.
In series [23] the test system is Macrophage. The series is described as follows: Antiinflammatory activity in human primary macrophages assessed as effect on LPS-induced TNFSF13B gene expression at 30 uM measured after 2 hrs by RT-PCR array (reference value: 28045 a.u.). The class given is functional.
In series [24] the test system is Macrophage. In words: Antiinflammatory activity in human primary macrophages assessed as effect on LPS-induced TGFB3 gene expression at 30 uM measured after 2 hrs by RT-PCR array (reference value: 524 a.u.). The class given is functional.
For series [25], the system named is Macrophage. In words: Antiinflammatory activity in human primary macrophages assessed as effect on LPS-induced TNF gene expression at 30 uM measured after 2 hrs by RT-PCR array (reference value: 7222474 a.u.). The class given is functional.

SMILES strings stand for the structures.

Sequence of Lysine-specific demethylase 4D (Q6B0I6 whole entry): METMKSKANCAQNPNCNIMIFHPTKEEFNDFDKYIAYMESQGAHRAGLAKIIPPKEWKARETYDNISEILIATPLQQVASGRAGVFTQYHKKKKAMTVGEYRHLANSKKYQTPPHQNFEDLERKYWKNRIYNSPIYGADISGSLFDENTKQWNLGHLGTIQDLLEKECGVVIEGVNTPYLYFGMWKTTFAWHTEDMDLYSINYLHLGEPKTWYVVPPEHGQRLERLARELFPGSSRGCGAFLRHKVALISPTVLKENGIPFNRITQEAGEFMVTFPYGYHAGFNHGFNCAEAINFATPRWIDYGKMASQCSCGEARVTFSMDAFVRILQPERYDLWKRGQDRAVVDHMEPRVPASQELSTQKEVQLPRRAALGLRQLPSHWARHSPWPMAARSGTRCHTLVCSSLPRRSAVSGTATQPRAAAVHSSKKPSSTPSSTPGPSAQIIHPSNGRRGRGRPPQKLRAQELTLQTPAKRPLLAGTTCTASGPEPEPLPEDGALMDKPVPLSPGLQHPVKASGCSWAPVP
Sequence of Histone deacetylase 7 (Q8WUI4 whole entry): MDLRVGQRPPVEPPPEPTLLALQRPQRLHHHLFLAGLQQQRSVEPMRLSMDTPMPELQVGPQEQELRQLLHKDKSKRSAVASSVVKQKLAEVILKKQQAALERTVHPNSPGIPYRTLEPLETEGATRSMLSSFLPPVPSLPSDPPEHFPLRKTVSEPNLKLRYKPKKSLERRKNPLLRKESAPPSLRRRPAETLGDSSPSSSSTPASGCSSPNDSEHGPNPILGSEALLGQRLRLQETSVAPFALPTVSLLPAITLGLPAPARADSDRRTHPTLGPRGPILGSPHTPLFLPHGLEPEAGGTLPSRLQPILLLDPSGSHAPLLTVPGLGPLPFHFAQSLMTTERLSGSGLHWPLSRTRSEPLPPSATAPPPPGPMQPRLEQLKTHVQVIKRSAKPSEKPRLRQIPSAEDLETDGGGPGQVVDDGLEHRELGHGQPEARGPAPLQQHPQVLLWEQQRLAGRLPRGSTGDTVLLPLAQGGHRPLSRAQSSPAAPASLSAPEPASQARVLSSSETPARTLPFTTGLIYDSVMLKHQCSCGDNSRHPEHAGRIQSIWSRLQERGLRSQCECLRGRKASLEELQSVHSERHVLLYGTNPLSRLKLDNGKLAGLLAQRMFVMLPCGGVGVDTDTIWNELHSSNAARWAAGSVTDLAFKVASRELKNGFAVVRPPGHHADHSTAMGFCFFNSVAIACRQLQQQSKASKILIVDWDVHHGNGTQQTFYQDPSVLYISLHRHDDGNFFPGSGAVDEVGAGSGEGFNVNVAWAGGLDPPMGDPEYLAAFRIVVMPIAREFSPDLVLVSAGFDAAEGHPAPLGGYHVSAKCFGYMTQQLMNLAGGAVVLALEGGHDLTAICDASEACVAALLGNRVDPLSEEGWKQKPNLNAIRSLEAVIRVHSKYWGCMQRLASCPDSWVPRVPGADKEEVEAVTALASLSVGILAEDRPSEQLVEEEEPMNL
Sequence of OATP1B1 (SLCO1B1) (Q9Y6L6 whole entry): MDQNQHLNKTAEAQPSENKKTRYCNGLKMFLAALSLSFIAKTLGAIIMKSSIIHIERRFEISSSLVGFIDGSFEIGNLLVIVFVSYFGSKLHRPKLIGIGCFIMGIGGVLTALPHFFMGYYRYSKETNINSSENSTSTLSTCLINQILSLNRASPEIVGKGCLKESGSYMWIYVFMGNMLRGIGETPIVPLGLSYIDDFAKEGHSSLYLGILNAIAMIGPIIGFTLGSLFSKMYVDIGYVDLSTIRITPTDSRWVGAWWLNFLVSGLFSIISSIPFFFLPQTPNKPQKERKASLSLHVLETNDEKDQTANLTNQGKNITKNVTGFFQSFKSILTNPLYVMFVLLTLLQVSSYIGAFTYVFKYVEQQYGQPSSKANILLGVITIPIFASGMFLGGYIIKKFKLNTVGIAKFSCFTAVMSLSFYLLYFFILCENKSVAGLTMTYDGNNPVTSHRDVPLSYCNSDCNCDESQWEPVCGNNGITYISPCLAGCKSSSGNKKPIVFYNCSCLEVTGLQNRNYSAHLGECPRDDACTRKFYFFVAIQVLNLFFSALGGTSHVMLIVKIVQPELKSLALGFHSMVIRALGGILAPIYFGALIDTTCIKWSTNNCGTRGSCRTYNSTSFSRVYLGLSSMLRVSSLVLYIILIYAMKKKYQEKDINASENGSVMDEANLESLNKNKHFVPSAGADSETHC
Sequence of 3',5'-cyclic-AMP phosphodiesterase 4B (Q07343 whole entry): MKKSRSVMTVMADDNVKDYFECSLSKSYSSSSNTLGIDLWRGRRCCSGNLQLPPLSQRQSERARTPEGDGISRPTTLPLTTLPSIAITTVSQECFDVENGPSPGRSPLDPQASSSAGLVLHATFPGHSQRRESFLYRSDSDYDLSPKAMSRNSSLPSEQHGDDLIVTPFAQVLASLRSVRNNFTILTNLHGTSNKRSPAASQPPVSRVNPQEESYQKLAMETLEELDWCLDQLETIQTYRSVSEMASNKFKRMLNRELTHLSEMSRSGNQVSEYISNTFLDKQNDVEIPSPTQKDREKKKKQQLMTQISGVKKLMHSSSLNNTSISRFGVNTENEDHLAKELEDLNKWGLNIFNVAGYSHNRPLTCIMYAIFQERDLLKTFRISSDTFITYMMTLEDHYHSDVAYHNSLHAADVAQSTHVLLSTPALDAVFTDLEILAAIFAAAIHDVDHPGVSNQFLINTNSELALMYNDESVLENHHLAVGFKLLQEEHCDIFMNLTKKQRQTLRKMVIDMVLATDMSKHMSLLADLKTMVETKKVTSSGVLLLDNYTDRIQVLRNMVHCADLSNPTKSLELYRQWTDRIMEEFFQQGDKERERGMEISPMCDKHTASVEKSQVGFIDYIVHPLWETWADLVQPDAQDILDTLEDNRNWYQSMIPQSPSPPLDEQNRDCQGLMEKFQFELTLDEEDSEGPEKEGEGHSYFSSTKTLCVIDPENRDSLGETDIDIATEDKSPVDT
Sequence of Histamine H1 receptor (P35367 whole entry): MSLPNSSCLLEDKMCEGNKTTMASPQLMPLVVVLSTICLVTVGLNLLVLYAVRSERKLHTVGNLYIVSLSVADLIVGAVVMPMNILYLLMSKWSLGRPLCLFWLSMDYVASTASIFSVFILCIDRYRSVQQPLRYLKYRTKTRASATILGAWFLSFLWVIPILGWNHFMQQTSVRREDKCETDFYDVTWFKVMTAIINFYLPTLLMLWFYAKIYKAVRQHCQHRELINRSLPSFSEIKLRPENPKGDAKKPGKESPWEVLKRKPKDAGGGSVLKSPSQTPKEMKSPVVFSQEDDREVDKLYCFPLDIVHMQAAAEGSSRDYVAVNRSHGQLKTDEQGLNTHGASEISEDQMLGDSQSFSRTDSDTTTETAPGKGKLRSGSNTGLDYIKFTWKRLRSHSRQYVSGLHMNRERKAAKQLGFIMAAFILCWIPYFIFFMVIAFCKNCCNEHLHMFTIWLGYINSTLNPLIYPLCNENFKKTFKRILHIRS
Sequence of Adenosine receptor A2a (P29274 whole entry): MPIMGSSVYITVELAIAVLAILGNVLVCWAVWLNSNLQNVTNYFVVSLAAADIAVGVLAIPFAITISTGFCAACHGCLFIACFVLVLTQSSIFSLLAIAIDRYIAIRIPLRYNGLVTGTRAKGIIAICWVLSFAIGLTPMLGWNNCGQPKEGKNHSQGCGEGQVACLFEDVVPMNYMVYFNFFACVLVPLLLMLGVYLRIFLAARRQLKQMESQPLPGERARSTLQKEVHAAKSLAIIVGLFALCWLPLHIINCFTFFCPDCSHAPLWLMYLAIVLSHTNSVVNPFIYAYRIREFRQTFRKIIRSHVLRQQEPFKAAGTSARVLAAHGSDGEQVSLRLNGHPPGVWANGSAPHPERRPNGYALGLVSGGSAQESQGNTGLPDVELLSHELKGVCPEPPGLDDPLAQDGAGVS

As to `O=C(O)CCNc1cc(N2CCc3ccccc3CC2)nc(-c2ccccn2)n1`, the XC50 in [1] was more than 32 µM; in [2], more than 16 µM; in [3], more than 40 µM; in series [5], more than 300 µM; in series [6], more than 25 µM; in series [7], 100 µM. In addition, the XC50 in series [8] is more than 40 µM. For the same molecule, in [4], the IC50 was 79 µM.

In the case of `CCOC(=O)CCNc1cc(N2CCc3ccccc3CC2)nc(-c2cccnc2)n1`, the Activity was 185197 a.u in [9]; 24543 a.u in [10]; 132521 a.u in series [11]; 9224 a.u in series [12]; 2746 a.u in series [13]; 1501879 a.u in series [14]. Also, the Activity in series [15] is on record as 60 a.u; in series [16], 1003 a.u; in series [17] it was 2862 a.u; in [18] it was 339 a.u; in series [19] it was 45 a.u; in [20], 110 a.u. Further, the Activity in series [21] is 1352294 a.u; in [22] it was 466 a.u; in series [23], 22792 a.u; in [24], 357 a.u; in series [25] it was 5261995 a.u.

`CCOC(=O)CCNc1cc(N2CCc3ccccc3CC2)nc(-c2ccccn2)n1`: the Activity in series [9] is on record as 74923 a.u; in [10], 4135 a.u; in [11], 39793 a.u; in [12], 708 a.u; in series [13], 2627 a.u; in series [14], 153760 a.u. For the same molecule, the Activity came to 298 a.u in series [15]; 334 a.u in series [16]; 3241 a.u in [17]; 3510 a.u in series [18]; 197 a.u in series [19]; 31 a.u in series [20]. In addition, the Activity was found to be 1352294 a.u in [21]; 9 a.u in [22]; 18715 a.u in series [23]; 650 a.u in [24]; 1593909 a.u in series [25].

As for `O=C(O)CCNc1cc(N2CCc3ccccc3CC2)nc(-c2cccnc2)n1`, the XC50 in series [1] was more than 32 µM; in series [2], more than 16 µM; in series [3], more than 40 µM; in [5], more than 300 µM; in [6], 20 µM; in [7] it was 40 µM. The XC50 in series [8] is more than 40 µM. Moreover, in series [4], the IC50 is more than 100 µM.

What is called IC50 is the concentration that inhibits the measured activity by half.
